# From US20030149090A1, “Compositions for the treatment of infectious diseases” (priority 2001, published 2003)
# Entries after “also recorded” stand apart in the source; their conditions may differ.
# What was measured:
# [1] = target: NADPH oxidase (Homo sapiens, UniProt P04839); details: membrane-bound phagocyte oxidase, substrate; cited from earlier work
# [2] = tested on: NADPH-oxidase activity of monocytes; assay: NADPH-oxidase activity of monocytes, isoluminol-enhanced chemiluminescence; type: cell-based, human
# Experimental: (§1) Peripheral blood was obtained from healthy blood donors at Sahlgren's Hospital, Göteborg, Sweden. […] See Hansson et al. 1996. […] J Immunol. 156:427.
# NADPH-oxidase activity was determined using an isoluminol-enhanced chemiluminescence (CL) system that quantitates extracellular reactive oxygen species (ROS). See Dahlgren, C., Karlsson, A. 1999. Respiratory burst in human neutrophils. J Immunol Methods 232:3-14.
# Superoxide anion production in elutriated monocytes was investigated by isoluminol-amplified CL (A). Cells were treated with histamine (50 μM) or the histamine H2 receptor antagonist ranitidine (50 μM).
# [3] = tested on: Tinea infection; details: cream, 0.08% by weight, topical four to five times a day
# From the text: Treatment of the subjects consists of the topical application of the medication four to five times a day at the lesion site. When treating fungal growths, care is taken not to contaminate new areas with fungal spores.
# [4] = tested on: microbial infections; details: 0.08% by weight together with antimicrobial
# Experimental: The ability of the ROM production and release inhibition compounds of the described embodiment to increase the effectiveness of antimicrobials is evaluated in two groups of 10 subjects each. No subjects are suffering from active infections at the initiation of the study. Group I subjects receive the type of antimicrobial used in treating the specific infection according to the dosage given by the manufacturer. […] The healing time of the patient in each group is then monitored.
# [5] = tested on: NK cells and T cells; assay: Flow cytometry assay of lymphocyte apoptosis induced by Hp(2-20)-activated monocytes; type: cell-based, human
# From the text: as §1
# Apoptosis was monitored by use of flow cytometry, as described elsewhere. See Mellqvist et al. 2000. […] Blood. 96:1961-8. T cells or NK cells were gated after exposure to monocytes, and the gate was set to comprise lymphocytes with a reduced forward scatter and an increased right angle scatter characteristic of apoptosis. See Hansson et al. 1996. Two additional methods were used to determine apoptosis in NK cells and T cells: analysis of DNA strand breaks by terminal deoxynucleotidyl transferase-mediated bromolated dUTP nick end labelling of DNA fragments (TUNEL assay) and Annexin V staining, as described elsewhere. See Mellqvist et al.; Hansson et al. 1999. […] J Interferon Cytokine Res. 19:1135-44.
# One million cells were stained with appropriate fluorescein isothiocyanate (FITC)- and phycoerythrin (PE)-conjugated monoclonal antibodies (Becton & Dickinson, Stockholm, Sweden; 10 μl/10^6 cells), as described in detail elsewhere. See Hansson et al. 1999. Cells were analyzed by use of flow cytometry on a FACSort with a Lysys II software program (Becton & Dickinson). Lymphocytes were gated on the basis of forward and right angle scatter. The flow rate was adjusted to <200 cells x s^−1 and at least 5×10^3 cells were analyzed for each sample.
# After incubation, cells in a lymphocyte gate were assayed for morphological features of apoptosis (reduced forward and increased right angle scatter) by use of flow cytometry. In A, data are the frequency of apoptotic CD56^+ (NK; dark gray bars) or CD3ε^+ (T; open bars) after the following treatments:
# Monocytes and/or lymphocytes were prepared as described in Methods. After incubation for 16 hrs, cells in a lymphocyte gate were assayed for morphological features of apoptosis (reduced forward and increased right angle scatter) by use of flow cytometry. Data are the frequency of apoptotic lymphocytes. histamine dihydrochloride, ranitidine, and Hp(2-20) were used at 50 μM, catalase at 100 U/ml, and SOD at 50 U/ml.
# [6] = tested on: Chlamidia trachomatis; details: ophthalmic solution 0.09% by weight, containing erythromycin, every three hours
# Experimental: A subject presenting an eye infection due to Chlamidia trachomatis is treated with the compositions of the described embodiment using an ophthalmic solution of histamine dihydrochloride at 0.09% by weight of formulation. Commercially available ophthalmic solutions are well known in the art. Additionally, the ophthalmic solution, preferably in drop form, contains erythromycin. Application of the solution to the eye occurs every three hours. A solution containing only the ROM production and release inhibiting compound is given hourly to ease the discomfort of the subject.
# [7] = tested on: S somaliensis; details: McNeil and Brown 1994; cited from earlier work
# [8] = tested on: Streptococcus pneumonia; assay: Treatment of Streptococcus pneumonia lung infection using a nebulizer; type: in vivo; details: 0.05% by weight, mist through a nebulizer
# Experimental: A subject diagnosed with Streptococcus pneumonia is treated with compounds of the described embodiment in the form of a nebulizer. The nebulizer is held firmly against the oral-nasal cavities of a patient with a respiratory infection. The nebulizer is used to deliver an aerosol mist as the patient inhales deeply. The aerosol mist contains either solely an effective amount of the preparation herein described or a mixture of the preparation and the chemotherapeutic used often administered for such an infection, such as, cephalexin. The ROM inhibitory compound NADPH oxidase inhibitor diphenlyeneiodonium in a concentration of 0.05% by weight of formulation is delivered as a mist in the patients lungs through a nebulizer.
# [9] = tested on: Helicobacter pylori; assay: Treatment of ulcers caused by Helicobacter pylori, oral controlled release device; type: in vivo; details: in combination with chemotherapeutics
# Experimental: A patient diagnosed with ulcers caused by Helicobacter pylori is treated with the compounds of the described embodiment. A controlled release mechanism is replenished with an effective dose of the ROM inhibitory compound NADPH oxidase inhibitor diphenlyeneiodonium and administered to the patient by oral intake of the device. As the device rests in the patient's stomach it simultaneously delivers the compounds of the described embodiment and decomposes in order to allow excretion from the body. The compounds of the described embodiment are administered in combination with chemotherapeutics typically administered for such an infection, such as amoxycillin, clarithromycin, tetracycline, or metronidazole.
# [10] = tested on: diarrhea-causing pathogens (Escherichia coli, Salmonella, Shigella or the like); assay: Treatment of diarrhea by oral administration of a capsule; type: in vivo; details: capsule 0.8% by weight, three to ten per day for seven to thirty days, with chemotherapeutic
# Experimental: A subject suffering from diarrhea due to any number of pathogenic geni, speci, or strain of Escherichia coli, Proteus mirabilis, Salmonella enteritidis, Klebsiella Yersinia, Shigella, Serratia, Candida, Giardia intestinalis, Cryptosporidium, Vibrio cholera, Campylobacter, Ascaris or the like responsible for gastrointestinal distress in the form of diarrhea or the like is treated with a capsule containing the ROM inhibitory compound NADPH oxidase inhibitor diphenlyeneiodonium in a concentration of 0.8% by weight of formulation in addition to administration of the appropriate chemotherapeutic compound, such as an aminoglycoside, chloramphenicol, trimethoprimsulfa-methoxazole, doxycycline, or a fluoroquinolone. The treatment consists of oral intake of three to ten capsules per day for a period of seven to thirty days (depending the causative agent of the infection).
# [11] = tested on: Streptococcus mutans; assay: Treatment of dental carries using a toothpaste and mouthwash; type: in vivo; details: toothpaste and mouthwash 0.05% by weight, five times per day for seven days
# Experimental: A subject suffering from dental carries due to Streptococcus mutans is treated with a toothpaste and a mouthwash containing the ROM inhibitory compound NADPH oxidase inhibitor diphenlyeneiodonium in a concentration of 0.05% by weight of formulation. The treatment consists of five tooth brushings with this toothpaste and mouthwash applications per day for a period of seven days.
# [12] = tested on: NADPH-oxidase activity of monocytes; details: earlier finding, Bylund et al. 2001; cited from earlier work
# [13] = tested on: Arcanobacterium haemolyticum; details: reported in the literature; cited from earlier work
# [14] = histamine 50 μM, catalase 100 U/ml, SOD 50 U/ml, Hp(2-20) 50 μM, 16 hrs
# [15] = ranitidine 50 μM with histamine 50 μM
molecule,measurement,setting,value
NC(=O)C1=CN([C@@H]2O[C@H](COP(=O)(O)OP(=O)(O)OC[C@H]3O[C@@H](n4cnc5c(N)ncnc54)[C@H](OP(=O)(O)O)[C@@H]3O)[C@@H](O)[C@H]2O)C=CC1 [NADPH],Km,[1],45 µM
"Cl.Cl.NCCc1c[nH]cn1 [Histamine, Histamine dihydrochloride]",Inhibition of Hp(2-20)-induced oxygen radical formation in monocytes,"[2]; histamine 50 μM, elutriated monocytes, dihydrochloride",markedly inhibited; also recorded: reduce or inhibit
same,Healing time compared to the control group,[3],decrease in healing time
same,Healing time with antimicrobial plus ROM inhibitory composition versus antimicrobial alone,[4],faster healing time
same,"Protection of NK cells and T cells from monocyte-dependent, Hp(2-20)-induced apoptosis",[5]; dihydrochloride,resuced T cells and NK cells from apoptosis; also recorded: protected NK cells/T cells from the monocyte-induced apoptosis; also recorded: prevent the triggering of NK cell and T cell apoptosis; also recorded: protect T cells and NK cells from apoptotic cell death
same,"Time period of bacterial eye infection, damage and discomfort",[6],reduces the time period of bacterial infection
NC[C@H]1O[C@H](O[C@H]2[C@H](O)[C@@H](O[C@H]3O[C@H](CO)[C@@H](O)[C@H](N)[C@H]3O)[C@H](N)C[C@@H]2N)[C@H](N)C[C@@H]1O [tobramycin],In vitro sensitivity of S somaliensis,[7],sensitive
catalase,"Protection of NK cells and T cells from monocyte-dependent, Hp(2-20)-induced apoptosis",[5]; [14],completely prevented
c1ccc2c(c1)[I+]c1ccccc1-2 [diphenlyeneiodonium],Recovery of a patient with pneumonia,[8],hastens the recovery
same,Treatment of gastrointestinal ulcers,[9],effective in expediting the treatment of gastrointestinal ulcers
same,Treatment of diarrhea,[10],effective in accelerating the treatment of diarrhea
same,Treatment of dental carries,[11],effective in treating the dental carrier
"AKKVFKRLEKLFSKIQNDK [Hp(2-20), cecropin-like peptide derived from Helicobacter pylori]",Induction of NK cell and T cell apoptosis by monocytes treated with the peptide,"[5]; Hp(2-20) 50 μM, lymphocytes + 25% or 50% monocytes, overnight (16 hrs) incubation",induces apoptosis of T lymphocytes with CD3ε^+ phenotype and natural killer cells with CD56^+ phenotype; also recorded: triggers programmed cell death (apoptosis) of NK cells and T cells; also recorded: pronounced in NK cells as well as in CD3ε^+ T cells; also recorded: triggered NK cell and T cell death by apoptosis
same,Superoxide anion formation in phagocytic cells,[12],potently triggers superoxide anion formation
[H]/N=C(/N)N[C@H]1[C@H](O)[C@@H](O)[C@H](O[C@@H]2O[C@@H](C)[C@](O)(C=O)[C@H]2O[C@@H]2O[C@@H](CO)[C@H](O)[C@@H](O)[C@@H]2NC)[C@@H](N/C(N)=N\[H])[C@@H]1O [streptomycin],In vitro sensitivity of S somaliensis,[7],sensitive
CC(=O)O[C@H]1C[C@@]2(C)[C@@H](C[C@@H](O)[C@H]3[C@@]4(C)CC[C@@H](O)[C@@H](C)[C@@H]4CC[C@@]32C)/C1=C(\CCC=C(C)C)C(=O)O [fusidic acid],Susceptibility of A. haemolyticum,[13],uniformly susceptible
same,In vitro sensitivity of S somaliensis,[7],sensitive
NC(=O)C1=CN([C@@H]2O[C@H](COP(=O)(O)OP(=O)(O)OC[C@H]3O[C@@H](n4cnc5c(N)ncnc54)[C@H](O)[C@@H]3O)[C@@H](O)[C@H]2O)C=CC1 [NADH],Km,[1],450 µM
"CNC(=C[N+](=O)[O-])NCCSCc1ccc(CN(C)C)o1.Cl [ranitidine, ranitidine hydrochloride]",Effect on histamine's inhibition of Hp(2-20)-induced oxygen radical formation,[2]; [15],reversed the inhibition
same,Effect on the histamine-induced protection of T cells and NK cells from apoptosis,[5]; [15],antagonized
Superoxide dismutase [SOD],"Protection of NK cells and T cells from monocyte-dependent, Hp(2-20)-induced apoptosis",[5]; [14],completely prevented
COc1cc(Cc2cnc(N)nc2N)cc(OC)c1OC [trimethoprim],In vitro sensitivity of S somaliensis,[7],resistant
CC[C@H]1OC(=O)[C@H](C)[C@@H](O[C@H]2C[C@@](C)(OC)[C@@H](O)[C@H](C)O2)[C@H](C)[C@@H](O[C@@H]2O[C@H](C)C[C@H](N(C)C)[C@H]2O)[C@](C)(O)C[C@@H](C)C(=O)[C@H](C)[C@@H](O)[C@]1(C)O [erythromycin],In vitro sensitivity of S somaliensis,[7],sensitive
O=C(N[C@H](CO)[C@H](O)c1ccc([N+](=O)[O-])cc1)C(Cl)Cl [chloramphenicol],Susceptibility of A. haemolyticum,[13],uniformly susceptible
